Measurements: US20240091210A1, “USE OF 5-[[4-[2-[5-ACETYLPYRIDIN-2-YL]ETHOXY]BENZYL]-1,3-THIAZOLIDINE-2,4-DIONE AND ITS SALTS” (Minoryx Therapeutics S.L., priority 2018, published 2024)

Legend:
[1] = target: mitochondrial pyruvate carrier (MPC) (Homo sapiens (Human), UniProt O95563+Q9Y5U8); assay: BRET assay of MPC inhibitory activity in HEK cells; assay type: cell-based; conditions: HEK cells expressing MPC2-Rluc8 and MPC1-Venus; read-out: IC50 (MPC inhibition, BRET)
Protocol: The MPC is a heterodimer composed of two subunits, MPC1 and MPC2. MPC1 and MPC2 interact to form an active carrier. In the assay, MPC2 was fused to Rluc8 (Donor) and MPC1 to Venus (Acceptor). These chimeric proteins were stably expressed in HEK cells. BRET activity was measured following addition of coelenterazine in the culture medium. Coelenterazine enters into cells and in contact with luciferase Rluc8 emits light, which activates the emission of fluorescence by the Acceptor, provided the distance between the Donor and Acceptor is <[…]. If the distance between Donor and Acceptor is >[…], no BRET activity is measured. The level of BRET activity reflects a change in the conformation of the MPC: it is high when the carrier is in a closed conformation, low when the carrier is at rest and intermediary when it transports pyruvate. In this case, the BRET activity is the mean value between the BRET value when the carrier is at rest (Maximal distance between Donor and Acceptor) and the BRET value when it is closed (Shortest distance between Donor and Acceptor)
A wide range of concentrations of each of the tested compounds was used from 1 nM to 100 μM.

[2] = Plasma pharmacokinetics in mice after single oral 50 mg/kg M-III; assay type: in vivo; conditions: male C57BL/6 mice
Protocol: To the plasma pharmacokinetics of 5-[[4-[2-[5-acetylpyridin-2-yl]ethoxy]phenyl]methyl]-1,3-thiazolidine-2,4-dione (M-III) and 5-[[4-[2-[5-(1-hydroxyethyl)pyridin-2-yl]ethoxy]phenyl]methyl]-1,3-thiazolidine-2,4-dione (M-IV) were determined in male C57BL/6 mice following a single oral (50 mg/kg) dose administration of M-III.
Nine animals were administered orally with suspension formulation of M-III in 0.1% Tween 80 and 99.9% NaCMC in water (0.5% w/v) at 50 mg/kg dose. The dosing volume administered was 10 mL/kg. The blood samples were collected from set of three mice at each time point in labeled micro centrifuge tube containing K2EDTA solution as anticoagulant at Pre-dose, 0.25, 0.5, 1, 2, 4, 8, 12 and 24 hr. Plasma samples were separated by centrifugation of whole blood and stored below −70±10° C. until bioanalysis. All samples were processed for analysis by protein precipitation using acetonitrile and analyzed with fit-for-purpose LC-MS/MS method (LLOQ=2.46 ng/mL for M-III and 2.49 ng/mL for M-IV). Pharmacokinetic parameters were calculated using the non-compartmental analysis tool of Phoenix WinNonlin® (Version 6.3).

[3] = Plasma pharmacokinetics in mice after single oral 4.5 mg/kg M-III or MIN-102; assay type: in vivo, male C57BL/6 mice
Protocol: The plasma pharmacokinetics of 5-[[4-[2-[5-acetylpyridin-2-yl]ethoxy]phenyl]methyl]-1,3-thiazolidine-2,4-dione (M-III) and 5-[[4-[2-[5-(1-hydroxyethyl)pyridin-2-yl]ethoxy]phenyl]methyl]-1,3-thiazolidine-2,4-dione (M-IV) were determined in male C57BL/6 mice following a single oral (4.5 mg/kg) dose of either M-III or MIN-102 (5-[[4-[2-[5-(1-hydroxyethyl)pyridin-2-yl]ethoxy]phenyl]methyl]-1,3-thiazolidine-2,4-dione hydrochloride).
Animals were administered orally with a suspension formulation of either M-III or MIN-102 in 0.1% Tween 80 and 99.9% NaCMC in water (0.5% w/v) at 4.5 mg/kg dose. The blood samples were collected from a set of three mice at each time point in labeled micro centrifuge tubes containing K2EDTA solution as anticoagulant at Pre-dose, 0.25, 0.5, 1, 2, 4, 8, 12 and 24 hr. Plasma samples were separated by centrifugation of whole blood and stored below −70±10° C. until bioanalysis. All samples were processed for analysis by protein precipitation using acetonitrile and analyzed with fit-for-purpose LC-MS/MS method (LLOQ=2.46 ng/mL for M-III and 2.49 ng/mL for M-IV). Pharmacokinetic parameters were calculated using the non-compartmental analysis tool of Phoenix WinNonlin® (Version 6.3).

[4] = Plasma pharmacokinetics in rats after single oral 10 mg/kg M-III or MIN-102; assay type: in vivo, male Sprague Dawley rats
Protocol: The plasma pharmacokinetics of 5-[[4-[2-[5-acetylpyridin-2-yl]ethoxy]phenyl]methyl]-1,3-thiazolidine-2,4-dione (M-III; M3) and 5-[[4-[2-[5-(1-hydroxyethyl)pyridin-2-yl]ethoxy]phenyl]methyl]-1,3-thiazolidine-2,4-dione (M-IV; M4) were determined in male Sprague Dawley following a single oral (10 mg/kg) dose administration of either M-III or MIN-102.
Six animals were dosed orally with a suspension formulation of either M-III or MIN-102 in 0.1% Tween 80 and 99.9% CMC (0.5% w/v solution in RO water) at 10 mg/kg.
The dosing volume administered was 10 mL/kg. Blood samples (approximately 60 μL) were collected from retro-orbital plexus of three rats at 0.08, 0.25, 0.5, 1, 2, 4, 8, 12 and 24 hr (IV) and at predose, 0.25, 0.5, 1, 2, 4, 8, 12 and 24 hr. Samples were collected into labeled micro-tubes, containing K2EDTA solution (20% K2EDTA solution) as an anticoagulant. Plasma was immediately harvested from the blood by centrifugation at 4000 rpm for 10 min at 4±2° C. and stored below −70° C. until bioanalysis.
Concentrations of M-III and M-IV in rat plasma samples were determined by fit-for-purpose LC-MS/MS method. Non-Compartmental-Analysis module in Phoenix WinNonlin® (Version 6.3) was used to assess the pharmacokinetic parameters. Peak plasma concentrations (Cax) and time for the peak plasma concentrations (Tmax) were the observed values. The areas under the concentration time curve (AUClast and AUCinf) were calculated by linear trapezoidal rule.

[5] = Plasma pharmacokinetics in dogs after single oral 3 mg/kg M3 or MIN-102; assay type: in vivo, male Beagle dogs
Protocol: The plasma pharmacokinetics of 5-[[4-[2-[5-acetylpyridin-2-yl]ethoxy]phenyl]methyl]-1,3-thiazolidine-2,4-dione (M-III; M3) and 5-[[4-[2-[5-(1-hydroxyethyl)pyridin-2-yl]ethoxy]phenyl]methyl]-1,3-thiazolidine-2,4-dione (M-IV; M4) were determined in male Beagle dogs following a single oral (3 mg/kg) dose administration of either M3 or MIN-102.
Six animals were dosed orally with a suspension formulation of either M-III or MIN-102 in 0.1% Tween 80 and 99.9% CMC (aqueous carboxymethylcellulose 0.5% w/v solution in RO water) at 3 mg/kg. Blood samples (0.5 ml) were collected from the saphenous or cephalic or jugular veins of dogs at predose, 0.5, 1, 2, 4, 6 and 24 hr. Samples were collected into labeled micro-tubes, containing K2EDTA solution (20% K2EDTA solution) as an anticoagulant. Plasma was immediately harvested from the blood by centrifugation at 4000 rpm for 10 min and stored below −70° C. until bioanalysis.
Concentrations of M3 and M-IV in dog plasma samples were determined by fit-for-purpose LC-MS/MS method. Non-Compartmental-Analysis module in Phoenix WinNonlin® (Version 6.3) was used to assess the pharmacokinetic parameters. Peak plasma concentrations (Cmax) and time for the peak plasma concentrations (Tmax) were the […] observed values. The areas under the concentration time curve (AUClast and AUCinf) were calculated by linear trapezoidal rule.

[6] = as described in WO 2015/150476 A1; cited from earlier work

Chain of mitochondrial pyruvate carrier (MPC) (Q9Y5U8 whole entry, the tested form may be a part): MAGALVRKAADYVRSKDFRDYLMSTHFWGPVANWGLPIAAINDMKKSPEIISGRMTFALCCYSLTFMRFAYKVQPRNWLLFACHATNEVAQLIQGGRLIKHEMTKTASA
Chain of mitochondrial pyruvate carrier (MPC) (O95563 whole entry, the tested form may be a part): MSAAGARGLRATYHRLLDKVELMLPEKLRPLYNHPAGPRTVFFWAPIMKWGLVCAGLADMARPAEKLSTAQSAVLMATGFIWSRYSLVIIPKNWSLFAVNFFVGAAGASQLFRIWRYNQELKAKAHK

SMILES | IC50 [1] [nM] | share of total exposure (AUC) [2] | share of total exposure (AUC) ([3]; after single oral 4.5 mg/kg M-III, male mice) [%] | share of total exposure (AUC) ([3]; after single oral 4.5 mg/kg MIN-102, male mice) | share of total exposure (AUC) ([4]; after single oral 10 mg/kg M-III, male rats) [%] | share of total exposure (AUC) ([4]; after single oral 10 mg/kg MIN-102, male rats) | share of total exposure (AUC) ([5]; after single oral 3 mg/kg M3, male dogs) [%] | share of total exposure (AUC) ([5]; after single oral 3 mg/kg MIN-102, male dogs) | blood-brain-barrier penetration [6]
CCc1ccc(CCOc2ccc(CC3SC(=O)NC3=O)cc2)nc1 (stereo not shown) [Pioglitazone] | > 100000 |  |  |  |  |  |  |  | 
CC(O)c1ccc(CCOc2ccc(CC3SC(=O)NC3=O)cc2)nc1 (stereo not shown) [M-IV, 5-[[4-[2-[5-(1-hydroxyethyl)pyridin-2-yl]ethoxy]phenyl]methyl]-1,3-thiazolidine-2,4-dione] |  | about 75% | ~75 | about 62% | ~48 | about 58% | ~84 | about 92% | penetrates the BBB
CN(CCOc1ccc(C[C@@H]2SC(=O)NC2=O)cc1)c1ccccn1 [Rosiglitazone] | 2000 |  |  |  |  |  |  |  | 
